According to patent publication US11712438B2, “Phenyl derivatives as PGE2 receptor modulators” (IDORSIA PHARMACEUTICALS LTD, priority 2017, dated 2023):

What was measured:
PTRGER4 (EP4) = PTRGER4 (EP4) (Homo sapiens, UniProt P35408); experiment: cell-based;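 note: assay plate preincubated 15 min at 37 °C, after which PGE2 was added at 20 nM final and incubation continued 120 min at 37 °C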
Excerpt: The assay is using the PathHunter™ HEK 293 PTGER2 and PTGER4 b-arrestin cell lines from DiscoverX. The system is based on the Enzyme Fragment Complementation Technology. Two complementing fragments of the b-galactosidase enzyme are expressed within stably transfected cells. The larger portion of b-gal, termed EA for Enzyme Acceptor, is fused to the C-terminus of b-arrestin 2. The smaller fragment, termed ProLink™ tag, is fused to PTGER2 (EP2) or PTRGER4 (EP4) at the C-terminus. Upon activation, b-arrestin is recruited which forces the interaction of ProLink and EA, allowing complementation of the two fragments of b-gal and the formation of a functional enzyme which is capable of hydrolysing the substrate and generating a chemiluminescent signal.
The HEK 293 PTGER4 b-arrestin cells (DiscoverX 93-030-4C1) are detached from culture dishes with a cell dissociation buffer (Invitrogen, 13151-014), and collected in growing medium (GM: DMEM+Glutamax-I (Invitrogen 32430)/10% FCS, 1% Penicilin/streptomycin). 5000 cells per well of a 384 well plate (white with white bottom Greiner 781080) are seeded in 20 ul per well of GM. Plate is incubated at 37° C., 5% CO2 for 24 hours.
Stock solutions of test compounds are made at a concentration of 10 mM in DMSO, and serially diluted in DMSO to concentrations required for inhibition dose response curves (tested concentration range 10 μM-2 nM or 1 μM-0.2 nM).
PGE2 (Cayman 14010, stock solution: 100 uM in DMSO) is used as agonist at 20 nM final concentration, corresponding to EC80.
Five microliters of diluted compounds are transferred into the assay plate. Plate is pre-incubated 15 minutes at 37° C. Then five microliters of PGE2 (final conc. 20 nM) are transferred into the assay plate. Plate is incubated 120 minutes at 37° C.
Twelve μl of reagent are transferred to the assay plate and incubate for 1 hour at room temperature in the dark. Luminescence counts are read on a BMG Fluostar Optima reader according to manufacturers instructions.
For each compound concentration calculate of the percentage of activity compared to DMSO control value as average±STDEV. (each concentration is measured in duplicate)
When compounds were measured multiple times, mean values are given.

PTGER2 (EP2) = PTGER2 (EP2) (Homo sapiens, UniProt P43116); experiment: cell-based
Chain of PTGER2 (EP2) (P43116 whole entry): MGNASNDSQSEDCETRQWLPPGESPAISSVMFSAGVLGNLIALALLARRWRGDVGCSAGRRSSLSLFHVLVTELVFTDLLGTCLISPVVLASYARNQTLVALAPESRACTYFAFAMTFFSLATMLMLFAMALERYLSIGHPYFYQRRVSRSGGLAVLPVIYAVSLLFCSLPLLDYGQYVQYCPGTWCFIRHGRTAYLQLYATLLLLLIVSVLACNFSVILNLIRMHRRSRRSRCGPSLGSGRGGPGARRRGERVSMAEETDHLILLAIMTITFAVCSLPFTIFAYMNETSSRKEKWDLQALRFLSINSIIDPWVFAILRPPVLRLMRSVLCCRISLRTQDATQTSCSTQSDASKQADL

Chain of PTRGER4 (EP4) (P35408 whole entry): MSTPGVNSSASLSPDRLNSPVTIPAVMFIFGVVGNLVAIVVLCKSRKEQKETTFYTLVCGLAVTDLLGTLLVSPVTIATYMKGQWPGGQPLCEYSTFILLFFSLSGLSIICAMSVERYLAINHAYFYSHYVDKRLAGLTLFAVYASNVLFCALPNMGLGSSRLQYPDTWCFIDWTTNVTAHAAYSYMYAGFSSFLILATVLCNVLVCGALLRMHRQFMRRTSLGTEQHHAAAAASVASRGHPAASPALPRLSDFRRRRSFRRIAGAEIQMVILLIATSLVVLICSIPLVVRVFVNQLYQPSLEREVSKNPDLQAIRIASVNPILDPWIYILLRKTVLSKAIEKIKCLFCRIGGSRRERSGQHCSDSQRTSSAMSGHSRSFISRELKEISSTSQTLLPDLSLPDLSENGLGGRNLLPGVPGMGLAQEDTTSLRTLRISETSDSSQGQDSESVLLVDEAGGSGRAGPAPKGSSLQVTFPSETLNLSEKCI

## COc1cc(C(F)(F)F)cc(F)c1CCNc1cc(-c2ccc(C(=O)O)c(SC)c2)ncn1 [Example 230, 4-{6-[2-(2-Fluoro-6-methoxy-4-trifluoromethyl-phenyl)-ethylamino]-pyrimidin-4-yl}-2-methylsulfanyl-benzoic acid]
PTRGER4 (EP4)
  IC50: 152 nM
PTGER2 (EP2)
  IC50: 662 nM

## CCOc1cc(-c2cc(NCCc3c(F)cccc3F)ncn2)ccc1-c1noc(=O)[nH]1 [Example 233, 3-(4-(64(2,6-Difluorophenethypamino)pyrimidin-4-yl)-2-ethoxyphenyl)-[1,2,4]oxadiazol-5(4H)-one]
PTRGER4 (EP4)
  IC50: 398 nM
PTGER2 (EP2)
  IC50: 222 nM

## O=C(O)Cc1ccc(-c2cc(NCCc3c(F)cc(Br)cc3F)ncn2)cc1OC(F)(F)F [Example 236, (4-{6-[2-(4-Bromo-2,6-difluoro-phenyl)-ethylamino]-pyrimidin-4-yl}-2-trifluoromethoxy-phenyl)-acetic acid]
PTRGER4 (EP4)
  IC50: 351 nM
PTGER2 (EP2)
  IC50: 265 nM

## O=CNc1ccc(-c2cc(NCCc3c(F)cc(Br)cc3F)ncn2)cc1 [Example 238, N-(4-{6-[2-(4-Bromo-2,6-difluoro-phenyl)-ethylamino]-pyrimidin-4-yl}-phenyl)-formamide]
PTRGER4 (EP4)
  IC50: 438 nM
PTGER2 (EP2)
  IC50: 251 nM

## CCOc1cc(-c2cc(NCCc3c(F)cc(Br)cc3F)ncn2)ccc1C(=O)C(=O)O [Example 239, (4-{6-[2-(4-Bromo-2,6-difluoro-phenyl)-ethylamino]-pyrimidin-4-yl}-2-ethoxy-phenyl)-oxo-acetic acid]
PTRGER4 (EP4)
  IC50: 387 nM
PTGER2 (EP2)
  IC50: 300 nM

## O=c1c(O)c(-c2ccc(-c3cc(NCCc4c(F)cc(Br)cc4F)ncn3)cc2)c1=O [Example 243, 3-(4-{6-[2-(4-Bromo-2,6-difluoro-phenyl)-ethylamino]-pyrimidin-4-yl}-phenyl)-4-hydroxy-cyclobut-3-ene-1,2-dione]
PTRGER4 (EP4)
  IC50: 61 nM
PTGER2 (EP2)
  IC50: 41 nM

## COC(=O)c1ccc(-c2cc(NCCc3c(F)cc(Br)cc3F)ncn2)cc1SC [Example 246, 4-{6-[2-(4-Bromo-2,6-difluoro-phenyl)-ethylamino]-pyrimidin-4-yl}-2-methylsulfanyl-benzoic acid methyl ester]
PTRGER4 (EP4)
  IC50: 277 nM
PTGER2 (EP2)
  IC50: 479 nM

## CCOC(=O)CCc1sc(-c2cc(NCCc3c(F)cc(Br)cc3F)ncn2)cc1OCC [Example 247, 3-(5-{6-[2-(4-Bromo-2,6-difluoro-phenyl)-ethylamino]-pyrimidin-4-yl}-3-ethoxy-thiophen-2yl)-propionic acid ethyl ester]
PTRGER4 (EP4)
  IC50: 278 nM
PTGER2 (EP2)
  IC50: 799 nM

## CCc1cc(-c2cc(NCCc3c(F)cc(Br)cc3F)ncn2)ccc1C(=O)O [Example 249, 4-{6-[2-(4-Bromo-2,6-difluoro-phenyl)-ethylamino]-pyrimidin-4-yl}-2-ethyl-benzoic acid]
PTRGER4 (EP4)
  IC50: 467 nM
PTGER2 (EP2)
  IC50: 110 nM

## CC(C)Oc1cc(-c2cc(NCCc3c(F)cc(Br)cc3F)ncn2)ccc1C(=O)O [Example 251, 4-{6-[2-(4-Bromo-2,6-difluoro-phenyl)-ethylamino]-pyrimidin-4-yl}-2-isopropoxy-benzoic acid]
PTRGER4 (EP4)
  IC50: 831 nM
PTGER2 (EP2)
  IC50: 254 nM

## CCc1cc(-c2cc(NCCc3c(F)cc(Br)cc3F)ncn2)cc(Cl)c1CC(=O)O [Example 253, (4-{6-[2-(4-Bromo-2,6-difluoro-phenyl)-ethylamino]-pyrimidin-4-yl}-2-chloro-6-ethyl-phenyl)-acetic acid]
PTRGER4 (EP4)
  IC50: 170 nM
PTGER2 (EP2)
  IC50: 191 nM

## Cc1cc(-c2cc(NCCc3c(F)cc(Br)cc3F)ncn2)ccc1CC(=O)O [Example 254, (4-{6-[2-(4-Bromo-2,6-difluoro-phenyl)-ethylamino]-pyrimidin-4-yl}-2-methyl-phenyl)-acetic acid]
PTRGER4 (EP4)
  IC50: 880 nM
PTGER2 (EP2)
  IC50: 753 nM

## Cc1cc(-c2cc(NCCc3c(F)cc(Br)cc3F)ncn2)cc(C)c1CC(=O)O [Example 255, (4-{6-[2-(4-Bromo-2,6-difluoro-phenyl)-ethylamino]-pyrimidin-4-yl}-2,6-dimethyl-phenyl)-acetic acid]
PTRGER4 (EP4)
  IC50: 283 nM
PTGER2 (EP2)
  IC50: 344 nM

## Cc1cc(-c2cc(NCCc3c(F)cc(Br)cc3F)ncn2)cc(F)c1CC(=O)O [Example 256, (4-{6-[2-(4-Bromo-2,6-difluoro-phenyl)-ethylamino]-pyrimidin-4-yl}-2-fluoro-6-methyl-phenyl)-acetic acid]
PTRGER4 (EP4)
  IC50: 584 nM
PTGER2 (EP2)
  IC50: 574 nM

## CCc1cc(-c2cc(NCCc3c(F)cc(Br)cc3F)ncn2)cc(C)c1CC(=O)O [Example 257, (4-{6-[2-(4-Bromo-2,6-difluoro-phenyl)-ethylamino]-pyrimidin-4-yl}-2-ethyl-6-methyl-phenyl)-acetic acid]
PTRGER4 (EP4)
  IC50: 239 nM
PTGER2 (EP2)
  IC50: 212 nM

## Fc1cc(Br)cc(F)c1CCNc1cc(-c2ccc3[nH]ccc3c2)ncn1 [Example 258, [2-(4-Bromo-2,6-difluoro-phenyl)-ethyl]-[6-(1H-indol-5yl)-pyrimidin-4-yl]amine]
PTRGER4 (EP4)
  IC50: 174 nM
PTGER2 (EP2)
  IC50: 77 nM

## O=C(O)Cc1ccc(-c2cc(NCCc3c(F)cc(Br)cc3F)ncn2)cc1OC1CC1 [Example 260, (4-{6-[2-(4-Bromo-2,6-difluoro-phenyl)-ethylamino]-pyrimidin-4-yl}-2-cyclopropoxy-phenyl)-acetic acid]
PTRGER4 (EP4)
  IC50: 755 nM
PTGER2 (EP2)
  IC50: 204 nM

## CN1C(=O)NCc2ccc(-c3cc(NCCc4c(F)cc(Br)cc4F)ncn3)cc21 [Example 262, 7-{6-[2-(4-Bromo-2,6-difluoro-phenyl)-ethylamino]-pyrimidin-4-yl}-1-methyl-3,4-dihydro-1H-quinazolin-2-one]
PTRGER4 (EP4)
  IC50: 149 nM
PTGER2 (EP2)
  IC50: 88 nM

## Cc1cc(-c2cc(NCCc3c(F)cc(Br)cc3F)ncn2)cc(Cl)c1CC(=O)O [Example 264, (4-{6-[2-(4-Bromo-2,6-difluoro-phenyl)-ethylamino]-pyrimidin-4-yl}-2-chloro-6-methyl-phenyl)-acetic acid]
PTRGER4 (EP4)
  IC50: 465 nM
PTGER2 (EP2)
  IC50: 372 nM

## NC(=O)Nc1ccc(-c2cc(NCCc3c(F)cc(Br)cc3F)ncn2)cc1 [Example 265, (4-{6-[2-(4-Bromo-2,6-difluoro-phenyl)-ethylamino]-pyrimidin-4-yl}-phenyl)-urea]
PTRGER4 (EP4)
  IC50: 452 nM
PTGER2 (EP2)
  IC50: 242 nM

## O=c1[nH]c2ccc(-c3cc(NCCc4c(F)cc(Br)cc4F)ncn3)cc2o1 [Example 266, 6-{6-[2-(4-Bromo-2,6-difluoro-phenyl)-ethylamino]-pyrimidin-4-yl}-3H-benzooxazol-2-one]
PTRGER4 (EP4)
  IC50: 368 nM
PTGER2 (EP2)
  IC50: 65 nM

## Fc1cc(Br)cc(F)c1CCNc1cc(-c2ccc3[nH]ncc3c2)ncn1 [Example 267, [2-(4-Bromo-2,6-difluoro-phenyl)-ethyl]-[6-(1H-indazol-5-yl)-pyrimidin-4-yl]amine]
PTRGER4 (EP4)
  IC50: 183 nM
PTGER2 (EP2)
  IC50: 70 nM

## CCn1cc(-c2cc(NCCc3c(F)cc(Br)cc3F)ncn2)cc1C(=O)O [Example 269, 4-{6-[2-(4-Bromo-2,6-difluoro-phenyl)-ethylamino]-pyrimidin-4-yl}-1-ethyl-1H-pyrrole-2-carboxylic acid]
PTRGER4 (EP4)
  IC50: 768 nM
PTGER2 (EP2)
  IC50: 258 nM

## CCCn1cc(-c2cc(NCCc3c(F)cc(Br)cc3F)ncn2)cc1C(=O)O [Example 270, 4-{6-[2-(4-Bromo-2,6-difluoro-phenyl)-ethylamino]-pyrimidin-4-yl}-1-propyl-1H-pyrrole-2-carboxylic acid]
PTRGER4 (EP4)
  IC50: 700 nM
PTGER2 (EP2)
  IC50: 316 nM

## O=C(O)c1coc2cc(-c3cc(NCCc4c(F)cc(Br)cc4F)ncn3)ccc12 [Example 272, 6-{6-[2-(4-Bromo-2,6-difluoro-phenyl)-ethylamino]-pyrimidin-4-yl}-benzofuran-3-carboxylic acid]
PTRGER4 (EP4)
  IC50: 426 nM
PTGER2 (EP2)
  IC50: 174 nM
